From patent US10532082B2, “SOCS1-derived peptide for use in chronic complications of diabetes” (Fundació Hospital Universitari Vall d'Hebron-Institut de …, priority 2014, dated 2020)
Where no end group is shown, it is not given here.

Experiments:
[1] = system: STAT1; assay: STAT1 activation in cytokine-stimulated macrophages (Western blot); assay type: cell-based, murine; conditions: pre-incubation 50-150 ug/mL (Mut 150 ug/mL), IFNγ and IL-6 stimulation
Experimental: (§1) RAW264.7 macrophages and vascular smooth muscle cells (VSMC) cultured in a medium with 10% fetal bovine serum were used. The cells were synchronized (24 hours without serum), pre-incubated for 90 minutes with different peptide concentrations (miS1 or the control thereof, 50-150 μg/mL) and stimulated with cytokines (IFNγ […]). STAT activation was analyzed by means of Western blot for phosphorylated STAT1/STAT3 isoforms. JAK/STAT pathway-dependent chemokine (CCL2) expression was determined by means of ELISA. Cell viability was analyzed by MTT colorimetric assay and macrophage migration was analyzed by chemotaxis assay.

[2] = system: STAT3; assay: STAT3 activation in cytokine-stimulated macrophages (Western blot); assay type: cell-based, murine; conditions: pre-incubation 50-150 ug/mL (Mut 150 ug/mL), IFNγ and IL-6 stimulation
Experimental: as §1

## Mut: non-functional mutated peptide, F substituted with A: SEQ ID NO 3 DTHARTARSHSDYRRI, bound to lysine-palmitate; control of the experiments (not fully specified (N-terminus)) [reference compound]
[1]
  STAT1 activation (phosphorylation): did not cause any effect
[2]
  STAT3 activation (phosphorylation): did not cause any effect
